The subject of series [1] is gram-positive and gram-negative bacteria. Particulars: cited from earlier work.
In the next series the test system is microorganisms. Particulars: cited from earlier work.
A further series concerns molds and yeasts. Particulars: relative to activity against bacteria; cited from earlier work.
The conditions of series [2]: cited from earlier work.
The conditions of series [3]: in vivo; cited from earlier work.
A short description of series [4]: ECG/EKG comparison of QTc intervals in patients on and off treatment. The text has this: Applicants' also performed a comparison study involving hundreds of EKG's performed on patients treated with IV methadone versus the EKG's of patients not being treated with the IV methadone.
The conditions of series [5]: oral vs intramuscular; cited from earlier work.
For series [6] the following is noted: cited from earlier work. This is another data set of the same source.

Bounds are passed on as bounds.

For the compound `O=C(O)c1ccccc1` [Benzoic acid], in series [1], the “activity against growth of gram-positive and gram-negative bacteria” value is on record as “strongly active”. In the series on microorganisms, the “pH range (optimal pH range for activity)” value was 2-5. Moreover, in the series with molds and yeasts, the “activity against growth of molds and yeasts” value (“activity … of molds and yeasts” below) is listed as “slightly weaker”.

As to `CCCCOC(=O)c1ccc(O)cc1` [Butylparaben], the “pH range (optimal pH range for activity)” value in the series with microorganisms is given as 3.0-9.5. Also, the water solubility entry in series [2] is reported as “about 0.2%”.

As to `COC(=O)c1ccc(O)cc1` [Methylparaben], the “activity against growth of gram-positive and gram-negative bacteria” value in series [1] is “strongly active”. The “pH range (optimal pH range for activity)” value in the series with microorganisms was 3.0-9.5. Besides, the “activity … of molds and yeasts” value in the series with molds and yeasts was “slightly weaker”.

Consider `CCCOC(=O)c1ccc(O)cc1` [Propylparaben], for which the “pH range (optimal pH range for activity)” value with microorganisms is recorded as 3.0-9.5.

As to `C/C=C/C=C/C(=O)O` [Sorbic acid], the “activity against growth of gram-positive and gram-negative bacteria” value in series [1] was “strongly active”. The “pH range (optimal pH range for activity)” value in the series with microorganisms is reported as <6.5. Further, the “activity … of molds and yeasts” value in the series on molds and yeasts is “slightly weaker”.

In the case of `CC(C)(O)C(Cl)(Cl)Cl` [chlorobutanol], in series [3], the half-life entry is listed as “over 10 days”.

As to `CCC(=O)C(CC(C)N(C)C)(c1ccccc1)c1ccccc1` (stereo not drawn) [methadone], the “QTc prolongation after switch from IV route to oral route” value in series [4] (at least one patient) is “reversed”. The “prolongation in QTc interval times” value in series [4] (orally ingested methadone in a formulation without chlorobutanol) is recorded as “did not show a similar prolongation”. In addition, the “total analgesic effects, oral relative to same dose intramuscularly” value in series [5] was “about 50%”. The “time to appreciable concentrations in plasma” value in series [6] (after subcutaneous injection) was ≤ 10 min. In addition, the “time to detection in blood plasma after ingestion” value in series [6] (oral) is ≤ 30 min.

Take Benzalkonium chloride: the “activity against growth of gram-positive and gram-negative bacteria” value in series [1] was “strongly active”. Besides, the “pH range (optimal pH range for activity)” value in the series with microorganisms is recorded as 4-10. For the same compound, the “activity … of molds and yeasts” value with molds and yeasts is “slightly weaker”.

In the case of Cetrimide, the “activity against growth of gram-positive and gram-negative bacteria” value in series [1] is recorded as “strongly active”. Further, the “pH range (optimal pH range for activity)” value in the series on microorganisms is 4-10. Further, in the series on molds and yeasts, the “activity … of molds and yeasts” value is recorded as “slightly weaker”.

The values above are taken from US20040180915A1, “Methadone-containing compositions for parenteral administration and method of use thereof” (priority 2003, published 2004).
